Assay results from the CheMixHub viscosity set.
“And” between values parts separate entries of the source, which are not always exact repeats. Equal values may be shown once. ± gives the uncertainty stated by the source.

Experiment: xn = mol fraction of the nth substance listed

CC(N)CN (configuration not stated) + OCCO
viscosity [mPa·s], 101.33 kPa
Conditions | 298.15 K | 303.15 K | 308.15 K | 313.15 K | 318.15 K
x2 = 0.0513 | 1.89 ± 0.06 | 1.66 ± 0.05 | 1.4 ± 0.05 | 1.33 ± 0.04 | 1.23 ± 0.04
x2 = 0.1024 | 2.46 ± 0.08 | 2.17 ± 0.07 | 1.8 ± 0.06 | 1.69 ± 0.05 | 1.53 ± 0.05
x2 = 0.1534 | 3.22 ± 0.1 | 2.9 ± 0.09 | 2.34 ± 0.08 | 2.19 ± 0.07 | 1.98 ± 0.06
x2 = 0.2043 | 4.66 ± 0.15 | 3.91 ± 0.13 | 3.1 ± 0.1 | 2.84 ± 0.09 | 2.51 ± 0.08
x2 = 0.255 | 6.47 ± 0.21 | 5.31 ± 0.18 | 4.14 ± 0.14 | 3.73 ± 0.12 | 3.23 ± 0.11
x2 = 0.3056 | 9.02 ± 0.3 | 7.28 ± 0.24 | 5.57 ± 0.19 | 4.91 ± 0.16 | 4.28 ± 0.14
x2 = 0.356 | 12.47 ± 0.42 | 9.89 ± 0.33 | 7.43 ± 0.25 | 6.42 ± 0.21 | 5.39 ± 0.18
x2 = 0.4064 | 17.12 ± 0.58 | 13.17 ± 0.45 | 9.78 ± 0.33 | 8.33 ± 0.28 | 6.89 ± 0.23
x2 = 0.4566 | 22.35 ± 0.75 | 17 ± 0.57 | 12.38 ± 0.41 | 10.39 ± 0.35 | 8.36 ± 0.28
x2 = 0.5066 | 27.55 ± 0.92 | 20.91 ± 0.69 | 15.09 ± 0.5 | 12.54 ± 0.41 | 10 ± 0.33
x2 = 0.5565 | 32.68 ± 1.1 | 24.47 ± 0.79 | 17.48 ± 0.57 | 14.47 ± 0.47 | 11.46 ± 0.37
x2 = 0.6063 | 36.17 ± 1.2 | 26.99 ± 0.87 | 19.26 ± 0.62 | 15.91 ± 0.51 | 12.62 ± 0.41
x2 = 0.6556 | 37.44 ± 1.2 | 28.04 ± 0.9 | 20.15 ± 0.64 | 16.67 ± 0.53 | 13.25 ± 0.42
x2 = 0.7055 | 36.53 ± 1.2 | 27.76 ± 0.89 | 20.09 ± 0.64 | 16.66 ± 0.53 | 13.32 ± 0.43
x2 = 0.7549 | 34.46 ± 1.1 | 26.24 ± 0.84 | 19.07 ± 0.61 | 15.99 ± 0.51 | 12.78 ± 0.41
x2 = 0.8042 | 32.78 ± 1.1 | 24.03 ± 0.77 | 17.71 ± 0.57 | 14.9 ± 0.48 | 11.97 ± 0.38
x2 = 0.8533 | 28.17 ± 0.9 | 21.54 ± 0.69 | 15.99 ± 0.51 | 13.67 ± 0.44 | 11.17 ± 0.36
x2 = 0.9024 | 24.94 ± 0.8 | 18.68 ± 0.6 | 14.07 ± 0.45 | 12.16 ± 0.39 | 10 ± 0.32
x2 = 0.9512 | 20.88 ± 0.67 | 16.21 ± 0.52 | 12.23 ± 0.39 | 10.67 ± 0.34 | 8.83 ± 0.28

Cc1cccc(C)n1 + O
Conditions | viscosity
293.18 K, 101 kPa, x1 = 0.06338 | 2.838 ± 0.021 mPa·s
295.15 K, 101 kPa, x1 = 0.0183 | 1.357 ± 0.013 mPa·s
295.15 K, 101 kPa, x1 = 0.0403 | 1.932 ± 0.018 mPa·s
295.15 K, 101 kPa, x1 = 0.0675 | 2.915 ± 0.024 mPa·s
295.15 K, 101 kPa, x1 = 0.0833 | 3.276 ± 0.038 mPa·s
295.15 K, 101 kPa, x1 = 0.144 | 4.298 ± 0.038 mPa·s
295.15 K, 101 kPa, x1 = 0.282 | 5.153 ± 0.047 mPa·s
295.15 K, 101 kPa, x1 = 0.402 | 4.278 ± 0.051 mPa·s
295.15 K, 101 kPa, x1 = 0.602 | 2.687 ± 0.044 mPa·s
296.18 K, 101 kPa, x1 = 0.06338 | 2.578 ± 0.019 mPa·s
298.12 K, 101 kPa, x1 = 0.3006 | 4.353 ± 0.064 mPa·s
298.15 K, 101 kPa, x1 = 0.02034 | 1.346 ± 0.013 mPa·s
298.15 K, 101 kPa, x1 = 0.0297 | 1.553 ± 0.02 mPa·s
298.15 K, 101 kPa, x1 = 0.05039 | 2.066 ± 0.02 mPa·s
298.15 K, 101 kPa, x1 = 0.07682 | 2.713 ± 0.027 mPa·s
298.15 K, 101 kPa, x1 = 0.1166 | 3.638 ± 0.039 mPa·s
298.15 K, 101 kPa, x1 = 0.1208 | 3.916 ± 0.043 mPa·s
298.16 K, 101 kPa, x1 = 0.5008 | 2.844 ± 0.04 mPa·s
298.17 K, 101 kPa, x1 = 0.3981 | 3.708 ± 0.053 mPa·s
298.18 K, 101 kPa, x1 = 0.06338 | 2.428 ± 0.018 mPa·s
298.19 K, 101 kPa, x1 = 0.0602 | 2.361 ± 0.03 mPa·s
298.19 K, 101 kPa, x1 = 0.7887 | 1.038 ± 0.015 mPa·s
298.2 K, 101 kPa, x1 = 0.1001 | 3.14 ± 0.042 mPa·s
298.2 K, 101 kPa, x1 = 0.651 | 1.812 ± 0.026 mPa·s
298.21 K, 101 kPa, x1 = 0.0501 | 2.095 ± 0.027 mPa·s
298.23 K, 101 kPa, x1 = 0.2004 | 4.298 ± 0.063 mPa·s
299.18 K, 101 kPa, x1 = 0.06338 | 2.36 ± 0.017 mPa·s
300.12 K, 101.33 kPa, x1 = 0.0182 | 1.217 ± 0.01 mPa·s
300.18 K, 101 kPa, x1 = 0.06338 | 2.291 ± 0.017 mPa·s
301.18 K, 101 kPa, x1 = 0.06338 | 2.243 ± 0.017 mPa·s
302.02 K, 101 kPa, x1 = 0.0297 | 1.415 ± 0.016 mPa·s
302.18 K, 101 kPa, x1 = 0.06338 | 2.182 ± 0.016 mPa·s
303.02 K, 101 kPa, x1 = 0.2004 | 3.54 ± 0.059 mPa·s
303.05 K, 101 kPa, x1 = 0.0602 | 2.172 ± 0.027 mPa·s
303.08 K, 101 kPa, x1 = 0.1001 | 2.712 ± 0.038 mPa·s
303.12 K, 101.33 kPa, x1 = 0.0182 | 1.132 ± 0.009 mPa·s
303.17 K, 101 kPa, x1 = 0.0501 | 1.932 ± 0.023 mPa·s
303.17 K, 101 kPa, x1 = 0.3006 | 3.538 ± 0.057 mPa·s
303.18 K, 101 kPa, x1 = 0.06338 | 2.136 ± 0.016 mPa·s
303.19 K, 101 kPa, x1 = 0.3981 | 3.072 ± 0.043 mPa·s
303.19 K, 101 kPa, x1 = 0.5008 | 2.464 ± 0.034 mPa·s
303.23 K, 101 kPa, x1 = 0.7887 | 0.955 ± 0.014 mPa·s
303.26 K, 101 kPa, x1 = 0.651 | 1.593 ± 0.022 mPa·s
304.18 K, 101 kPa, x1 = 0.06338 | 2.093 ± 0.016 mPa·s
304.48 K, 101 kPa, x1 = 0.06338 | 2.084 ± 0.015 mPa·s
304.78 K, 101 kPa, x1 = 0.06338 | 2.076 ± 0.015 mPa·s
304.98 K, 101 kPa, x1 = 0.06338 | 2.071 ± 0.015 mPa·s
305.18 K, 101 kPa, x1 = 0.06338 | 2.066 ± 0.015 mPa·s
305.38 K, 101 kPa, x1 = 0.06338 | 2.063 ± 0.015 mPa·s
305.58 K, 101 kPa, x1 = 0.06338 | 2.064 ± 0.015 mPa·s
305.78 K, 101 kPa, x1 = 0.06338 | 2.065 ± 0.015 mPa·s
305.98 K, 101 kPa, x1 = 0.06338 | 2.065 ± 0.015 mPa·s
306.18 K, 101 kPa, x1 = 0.06338 | 2.058 ± 0.015 mPa·s
306.28 K, 101 kPa, x1 = 0.06338 | 2.074 ± 0.015 mPa·s
306.38 K, 101 kPa, x1 = 0.06338 | 2.083 ± 0.015 mPa·s
306.48 K, 101 kPa, x1 = 0.06338 | 2.088 ± 0.015 mPa·s
306.58 K, 101 kPa, x1 = 0.06338 | 2.101 ± 0.016 mPa·s
306.68 K, 101 kPa, x1 = 0.06338 | 2.124 ± 0.016 mPa·s
306.78 K, 101 kPa, x1 = 0.06338 | 2.141 ± 0.016 mPa·s
306.83 K, 101 kPa, x1 = 0.06338 | 2.151 ± 0.016 mPa·s
306.88 K, 101 kPa, x1 = 0.06338 | 2.183 ± 0.016 mPa·s
306.9 K, 101 kPa, x1 = 0.06338 | 2.198 ± 0.016 mPa·s
306.93 K, 101 kPa, x1 = 0.06338 | 2.22 ± 0.016 mPa·s
306.95 K, 101 kPa, x1 = 0.06338 | 2.242 ± 0.017 mPa·s
306.97 K, 101 kPa, x1 = 0.06338 | 2.27 ± 0.017 mPa·s
306.98 K, 101 kPa, x1 = 0.06338 | 2.291 ± 0.017 mPa·s
306.99 K, 101 kPa, x1 = 0.06338 | 2.316 ± 0.018 mPa·s
307 K, 101 kPa, x1 = 0.06338 | 2.344 ± 0.018 mPa·s and 2.36 ± 0.018 mPa·s
307.01 K, 101 kPa, x1 = 0.06338 | 2.384 ± 0.018 mPa·s and 2.396 ± 0.019 mPa·s and 2.405 ± 0.019 mPa·s
307.35 K, 101 kPa, x1 = 0.043 | 1.5 ± 0.02 mPa·s
307.35 K, 101 kPa, x1 = 0.0974 | 1.8 ± 0.03 mPa·s
307.65 K, 101 kPa, x1 = 0.0403 | 1.35 ± 0.02 mPa·s
307.65 K, 101 kPa, x1 = 0.105 | 1.95 ± 0.03 mPa·s
308.15 K, 101 kPa, x1 = 0.0349 | 1.2 ± 0.01 mPa·s
308.15 K, 101 kPa, x1 = 0.116 | 2.2 ± 0.03 mPa·s
308.18 K, 101 kPa, x1 = 0.5008 | 2.071 ± 0.029 mPa·s
308.21 K, 101 kPa, x1 = 0.3981 | 2.587 ± 0.036 mPa·s
308.23 K, 101 kPa, x1 = 0.7887 | 0.881 ± 0.013 mPa·s
308.26 K, 101 kPa, x1 = 0.651 | 1.413 ± 0.02 mPa·s
309.15 K, 101 kPa, x1 = 0.0288 | 1.1 ± 0.01 mPa·s
309.15 K, 101 kPa, x1 = 0.131 | 2.57 ± 0.03 mPa·s
311.15 K, 101 kPa, x1 = 0.0204 | 0.96 ± 0.01 mPa·s
311.15 K, 101 kPa, x1 = 0.155 | 2.47 ± 0.03 mPa·s
313.15 K, 101 kPa, x1 = 0.0185 | 0.88 ± 0.01 mPa·s
313.15 K, 101 kPa, x1 = 0.172 | 2.38 ± 0.03 mPa·s
313.25 K, 101 kPa, x1 = 0.5008 | 1.794 ± 0.024 mPa·s
313.31 K, 101 kPa, x1 = 0.3981 | 2.196 ± 0.03 mPa·s
313.32 K, 101 kPa, x1 = 0.651 | 1.262 ± 0.018 mPa·s
313.34 K, 101 kPa, x1 = 0.7887 | 0.815 ± 0.012 mPa·s
318.3 K, 101 kPa, x1 = 0.5008 | 1.571 ± 0.021 mPa·s
318.34 K, 101 kPa, x1 = 0.3981 | 1.902 ± 0.026 mPa·s
318.36 K, 101 kPa, x1 = 0.7887 | 0.758 ± 0.011 mPa·s
318.37 K, 101 kPa, x1 = 0.651 | 1.134 ± 0.016 mPa·s
319.15 K, 101 kPa, x1 = 0.017 | 0.73 ± 0.01 mPa·s
319.15 K, 101 kPa, x1 = 0.218 | 1.81 ± 0.02 mPa·s
323.15 K, 101 kPa, x1 = 0.013 | 0.63 ± 0.01 mPa·s
323.15 K, 101 kPa, x1 = 0.236 | 1.7 ± 0.02 mPa·s
